Results from US20110269790A1, “NOVEL THIENOPYRIDINES AS PHARMACOLOGICALLY ACTIVE AGENTS” (priority 2009, published 2011).

System: mice
Experiment: Acute oral toxicity, sighting study in mice
Format: in vivo, mouse
Settings: 2000 mg/kg in mice
Procedure: In the series of thioenopyridine derivatives compounds BN-4, BN-14 and BN-16 show good antiinflammatory potential in all models tested. […] Acute Oral Toxicity Study was conducted following OECD guidelines by fixed dose method adopted by OECD (420). The study involved preliminary sighting using small number of animals in order to derive the dose effect relation for toxicity and mortality and to provide information on dose selection for the main study.
In the preliminary sighting study, the effect of various dosed administered to single animals of each sex was investigated in a sequential manner. The sighting study generally yields information on the dose-toxicity relationship including an estimate of the minimum lethal dose. In the main study, the test article is administered to groups of 5 males and 5 female animals at one of the fixed doses (5, 50, 500 and 2000 mg/Kg). The dose is derived from the sighting study. It is immediately below that which is expected to result in mortality. If evident toxicity is not seen at the chosen dose level, the substance should be retested at the next higher dose level. If at the initial dose level, animals die, or a severe toxicity reaction requires removal of animals from the study for animal welfare reasons, the substance is retested at the next lower dose level. […]

SMILES: Nc1c2c(nc3sc4c(c13)CCC4)CCCC2 [BN-14, 2,3,6,7,8,9-Hexahydro-1H-cyclopenta[4,5]thieno[2,3-b]quinolin-10-amine]
- Toxicity, sighting study: toxic
